{
  "source": "paper PMC4038355",
  "about": "(Molecular microbiology, 2014)",
  "target": "T1, TstT (LVIS_0852) (Levilactobacillus brevis, UniProt Q03S28)",
  "T1 sequence (Q03S28 1-120)": "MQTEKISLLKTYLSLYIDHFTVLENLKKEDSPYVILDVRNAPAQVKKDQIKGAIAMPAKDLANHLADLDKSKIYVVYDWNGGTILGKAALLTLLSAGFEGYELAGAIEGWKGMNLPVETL",
  "type": "biochemical",
  "data": [
    {"smiles": "O=S(O)O", "note": "[sulfite]", "values": [
      {"measurement": "% decrease at 100 μM", "result": 40, "unit": "%"}
    ]}
  ]
}
